In US12570605B2, “Indole compounds, and preparation methods, and uses thereof” (Shenzhen 01 Life Science and Technology Co., Ltd., priority 2021, dated 2026):
Entries after “also recorded” stand apart in the source; their conditions may differ.

Key:
[1] = system: mouse model with ear AD-like symptoms induced by calcipotriol (MC903); assay: Mouse model with ear AD-like symptoms induced by calcipotriol (MC903), first batch of experiments (Embodiment 32); format: in vivo, BALB/c mouse; settings: MC903 6.9 nmol/mouse every day; for reducing ear thicknesses of the mice / reducing the total serum IgE levels of the mice: both ears, 11 consecutive days, vs model control group (MC903+EtOH), Mann-Whitney test; for therapeutic effects on AD-like symptoms in the ear of mice (combined with ear inflammation and tissue HE staining): 11 days
Description: (§1) A mouse model with ear AD-like symptoms induced by calcipotriol (MC903) was used to investigate these compounds in terms of the treatment activity for AD.
(§2) Referring to the Patent with a publication number of CN 110368386 A, a mouse model induced by MC903 (Calcipotriene) was prepared, wherein both ears of the BALB/c mouse model were applied with MC903, MC903+indole-3-aldehyde (IAId), or MC903+the compound prepared from the embodiments for 11 consecutive days, respectively, and total serum IgE levels, ear thicknesses, and weight loss in relative to the weight at the beginning of the experiment were tested at the end of the experiment.
(§3) The data shown in the results were average values ±SD of five independently repeated trials. Significance analysis was performed using Mann-Whitney test on the differences of corresponding parameters of the mice with the treatment group (MC903+ethanol (EtOH)), which was only administrated with MC903, wherein * indicated P<0.05, ** indicated P<0.01; *** indicated P<0.001.
In this batch of experiments, the dosage of MC903, a drug for constructing the models, was 6.9 nmol/mouse every day, and the experimental results of Compounds 1, 2, 3, 6, 7, 19, 20, 28, 29, 30, 34, 37, 38, and 39 in this batch were shown in FIGS. 11 to 13.
(§4) EtOH group was a Blank control group, which was only administrated with ethanol. MC903+ EtOH group was a model control group, which was administrated with Calcipotriene and ethanol. The remaining groups were the groups which were administered with MC903 to construct the model, and then administrated with different drugs. Indole-3-aldehyde (IAId) group was the group administered with IAId, indole-3-methanol (I3C) group was the group administered with I3C. The other compound groups were the groups administered with corresponding compounds.

[2] = system: mouse model with ear AD-like symptoms induced by calcipotriol (MC903); assay: Mouse model with ear AD-like symptoms induced by calcipotriol (MC903), second batch of experiments (Embodiment 32); format: in vivo, BALB/c mouse; settings: MC903 5 nmol/mouse every day, 9 days; for therapeutic effects on AD-like symptoms in the ear of mice (ear inflammation, tissue HE staining, parameters of multiple experiments): screening over both batches; for reducing ear thicknesses of the mice / reducing the total serum IgE levels of the mice: vs model control group (MC903+EtOH), Mann-Whitney test
Description: as §1, §2, §3
Therefore, in the second batch of drug tests, the dosage of MC903 was decreased to 5 nmol/mouse every day, and the test period was reduced to 9 days.
as §4, with “then administered” for “then administrated”, “with IAId. Indole-3-methanol” for “with IAId, indole-3-methanol”

[3] = system: mouse model with ear AD-like symptoms induced by calcipotriol (MC903); assay: Optimum effective concentration in treatment of AD-like symptoms, MC903 mouse model (Embodiment 33); format: in vivo; settings: vs group only administrated with MC903; for inhibitory effect on systematic inflammation (lower total serum IgE levels and improvement on AD-like symptoms in the mice ear): dosages per Table 11
Description: The above screened compounds having therapeutic effect on AD-like symptoms were selected to further determine the optimum effective concentration.
Referring to the animal model method in the Embodiment 32, dosages of drugs for each group were determined according to the table below, and the optimal effective concentration in treatment of AD-like symptoms was explored by comparing the differences in ear thicknesses, the total serum IgE levels and the weight loss of the mice with those of the treatment group only administrated with MC903.

Compound	reducing ear thicknesses of the mice [1]	reducing the total serum IgE levels of the mice [1]	reducing the total serum IgE levels of the mice [2]	further results
CCCCCC(=O)OCOC(=O)n1cc(C=O)c2ccccc21 [Compound 1, (hexanoyloxy)methyl 3-formyl-1H-indole-1-carboxylate]	statistically significant difference	statistically significant difference		
CCCCCCCC(=O)OCOC(=O)n1cc(C=O)c2ccccc21 [Compound 2, (octanoyloxy)methyl 3-formyl-1H-indole-1-carboxylate]		statistically significant difference		
CCCCCCCCCCCC(=O)OCOC(=O)n1cc(C=O)c2ccccc21 [Compound 4, (dodecanoyloxy)methyl 3-formyl-1H-indole-1-carboxylate]			statistically significant difference; also recorded: excellent effects	therapeutic effects on AD-like symptoms in the ear of mice (ear inflammation, tissue HE staining, parameters of multiple experiments) [2]: therapeutic effects; reducing ear thicknesses of the mice [2]: statistically significant difference; inhibitory effect on systematic inflammation (lower total serum IgE levels and improvement on AD-like symptoms in the mice ear) [3]: good inhibitory effect; also recorded: excellent inhibitory effect
CC(=O)Oc1ccccc1C(=O)OCOC(=O)n1cc(C=O)c2ccccc21 [Compound 8, ((2-acetoxybenzoyl)oxy)methyl 3-formyl-1H-indole-1-carboxylate]			statistically significant difference	reducing ear thicknesses of the mice [2]: statistically significant difference
O=Cc1cn(C(=O)OCOC(=O)Cc2ccccc2Nc2c(Cl)cccc2Cl)c2ccccc12 [Compound 9, (2-(2-((2,6-dichlorophenyl)amino)phenyl)acetoxy)methyl 3-formyl-1H-indole-1-carboxylate]			statistically significant difference; also recorded: excellent effects	therapeutic effects on AD-like symptoms in the ear of mice (ear inflammation, tissue HE staining, parameters of multiple experiments) [2]: therapeutic effects; reducing ear thicknesses of the mice [2]: statistically significant difference; also recorded: excellent effects; therapeutic effect on AD-like symptoms in the mouse ear ([3]; at different concentration): significant therapeutic effect; inhibitory effect on systematic inflammation (lower total serum IgE levels and improvement on AD-like symptoms in the mice ear) [3]: good inhibitory effect
CCCCCC(=O)OCOC(=O)n1cc(CO)c2ccccc21 [Compound 19, (hexanoyloxy)methyl 3-(hydroxymethyl)-1H-indole-1-carboxylate]	statistically significant difference			
CCCCCCCC(=O)OCOC(=O)n1cc(CO)c2ccccc21 [Compound 20, (octanoyloxy)methyl 3-(hydroxymethyl)-1H-indole-1-carboxylate]	statistically significant difference			
CCCCCCCCCCCC(=O)OCOC(=O)n1cc(CO)c2ccccc21 [Compound 22, (dodecanoyloxy)methyl 3-(hydroxymethyl)-1H-indole-1-carboxylate]			statistically significant difference; also recorded: excellent effects	therapeutic effects on AD-like symptoms in the ear of mice (ear inflammation, tissue HE staining, parameters of multiple experiments) [2]: therapeutic effects; inhibitory effect on systematic inflammation (lower total serum IgE levels and improvement on AD-like symptoms in the mice ear) [3]: good inhibitory effect
CCCCCCCCCCCCCC(=O)OCOC(=O)n1cc(CO)c2ccccc21 [Compound 23, (tetradecanoyloxy)methyl 3-(hydroxymethyl)-1H-indole-1-carboxylate]			statistically significant difference	
CCCCCCCCCCCCCCCC(=O)OCOC(=O)n1cc(CO)c2ccccc21 [Compound 24, (palmitoyloxy)methyl 3-(hydroxymethyl)-1H-indole-1-carboxylate]			statistically significant difference	
CC(=O)Oc1ccccc1C(=O)OCOC(=O)n1cc(CO)c2ccccc21 [Compound 26, ((2-acetoxybenzoyl)oxy)methyl 3-(hydroxymethyl)-1H-indole-1-carboxylate]			statistically significant difference	
O=C(Cc1ccccc1Nc1c(Cl)cccc1Cl)OCOC(=O)n1cc(CO)c2ccccc21 [Compound 27, (2-(2-((2,6-dichlorophenyl)amino)phenyl)acetoxy)methyl 3-(hydroxymethyl)-1H-indole-1-carboxylate]			statistically significant difference	reducing ear thicknesses of the mice [2]: statistically significant difference
CCCCCCCC(=O)OCn1cc(C=O)c2ccccc21 [Compound 29, (3-formyl-1H-indol-1-yl)methyl octanoate]	statistically significant difference; also recorded: excellent effects	statistically significant difference		therapeutic effects on AD-like symptoms in the ear of mice (combined with ear inflammation and tissue HE staining) [1]: significant therapeutic effects; therapeutic effects on AD-like symptoms in the ear of mice (ear inflammation, tissue HE staining, parameters of multiple experiments) [2]: therapeutic effects; reducing ear thicknesses of the mice [2]: statistically significant difference; inhibitory effect on systematic inflammation (lower total serum IgE levels and improvement on AD-like symptoms in the mice ear) [3]: good inhibitory effect
CCCCCCCCCC(=O)OCn1cc(C=O)c2ccccc21 [Compound 30, (3-formyl-1H-indol-1-yl)methyl decanoate]	statistically significant difference; also recorded: excellent effects	statistically significant difference; also recorded: excellent effects	statistically significant difference; also recorded: excellent effects	therapeutic effects on AD-like symptoms in the ear of mice (combined with ear inflammation and tissue HE staining) [1]: significant therapeutic effects; therapeutic effects on AD-like symptoms in the ear of mice (ear inflammation, tissue HE staining, parameters of multiple experiments) [2]: therapeutic effects; reducing ear thicknesses of the mice [2]: statistically significant difference; inhibitory effect on systematic inflammation (lower total serum IgE levels and improvement on AD-like symptoms in the mice ear) [3]: good inhibitory effect; also recorded: excellent inhibitory effect
CCCCCCCCCCCCCCCC(=O)OCn1cc(C=O)c2ccccc21 [Compound 33, (3-formyl-1H-indol-1-yl)methyl palmitate]			statistically significant difference	
COCCOCCOCCOCCOCC(=O)OCn1cc(C=O)c2ccccc21 [Compound 34, (3-formyl-1H-indol-1-yl)methyl 2,5,8,11,14-pentaoxahexadecan-16-oate]	statistically significant difference	statistically significant difference		
CC(=O)Oc1ccccc1C(=O)OCn1cc(C=O)c2ccccc21 [Compound 35, (3-formyl-1H-indol-1-yl)methyl 2-acetoxybenzoate]			statistically significant difference; also recorded: excellent effects	therapeutic effects on AD-like symptoms in the ear of mice (ear inflammation, tissue HE staining, parameters of multiple experiments) [2]: therapeutic effects; inhibitory effect on systematic inflammation (lower total serum IgE levels and improvement on AD-like symptoms in the mice ear) [3]: good inhibitory effect
CCCCCC(=O)OCn1cc(CO)c2ccccc21 [Compound 37, (3-(hydroxymethyl)-1H-indol-1-yl)methyl hexanoate]		statistically significant difference		
CCCCCCCCCC(=O)OCn1cc(CO)c2ccccc21 [Compound 39, (3-(hydroxymethyl)-1H-indol-1-yl)methyl decanoate]	statistically significant difference	statistically significant difference		
CCCCCCCCCCCCCC(=O)OCn1cc(CO)c2ccccc21 [Compound 41, (3-(hydroxymethyl)-1H-indol-1-yl)methyl tetradecanoate]			statistically significant difference	
OCc1c[nH]c2ccccc12 [Compound I3C, indole-3-methanol, reference compound]	significantly reduced	significantly reduced		
O=Cc1c[nH]c2ccccc12 [IAId, indole-3-carboxaldehyde, reference compound]	significantly reduced	significantly reduced		
